Data from US20250032510A1, “AMORPHOUS SOLID DISPERSION GANAXOLONE FORMULATION” (MARINUS PHARMACEUTICALS, INC., priority 2021, published 2025).

Assay: DSC miscibility screening of polymer-surfactant-ganaxolone combinations
Type: physicochemical
Details: added to all formulations

Effect of addition on crystallinity of the ganaxolone: increased crystallinity
SMILES: CCCC(CCC)C(=O)O [Valproic acid]
